According to patent publication US11414385B2, “Compounds and methods for treating, detecting, and identifying compounds to treat apicomplexan parasitic diseases” (The University of Chicago, priority 2015, dated 2022):
Entries after “also recorded” stand apart in the source; their conditions may differ.

Columns and labels:
Dd2 parasites = assay: Isobologram drug combination assay (fixed ratio, FIC); assay type: cell-based, Plasmodium falciparum; conditions: Dd2, fixed ratios
Protocol: Isobologram experiments were performed in similar fashion utilizing the modified fixed ratio methodology. Briefly, MJM170 and either atovaquone or cycloguanil or BRD6323 were mixed at multiple fixed volumetric ratios (10:0, 8:2, 6:4, 4:6, 2:8, and 0:10) and then serially diluted in 12-point 2-fold dilutions and dispensed in triplicate to 384-well assay plates and replicated on three different days. EC50 values were calculated as above, and FICs were calculated for each drug combination as described^S76. Synergy was defined as an FIC <1.0, additivity as FIC=1.0, and antagonism as FIC >1.0.

[1] = test system: S. cerevisiae M221Q and M221F cytochrome b mutants; assay: Yeast growth inhibition, cytochrome b Qi mutants; assay type: cell-based, Saccharomyces cerevisiae
Description: Three S. cerevisiae strains were used: M221Q and M221F cytochrome b mutants and wild type. They share the same nuclear genetic background deriving from AD1-9 (kindly given by M. Ghislain, UCL, Belgium). AD1-9 harbors multiple deletions in the ABC transporter genes that render the strain more sensitive to drugs than standard yeast strains^S65.
Cytochrome b mutant M221F was generated by mitochondrial transformation as described. M221 Q was selected as suppressor from a respiratory deficient mutant. Analysis of revertants from respiratory deficient mutants within the center N of cytochrome b in Saccharomyces cerevisiae.
Protocol: Yeast strains were grown over 48 hours at 33° C. in liquid YPG medium [1% yeast extract, 2% (wt/vol) peptone, and 3% (vol/vol) glycerol). Cultures were diluted to an OD600 of 0.05 and grown for 2 hrs. Cultures were then combined with YPG containing 6% melted agar for a total volume of 15-20 mL and poured onto OmniTray single-well rectangular plates that measured 86 mm by 128 mm (ThermoScientific). Filter paper disks (7 mm diameter, […]) were placed onto the cooled agar plates. […] Images were obtained after 4 days using GelDoc XR Imaging System (BioRad) and Quantity One software. Drug effect was assessed by the presence and size of a zone of inhibition around the disks.

bovine cytochrome bc = target: T1, bovine cytochrome bc (Bos taurus, UniProt P00157); assay: Binding assays with bovine cytochrome bc1
T1 construct: Whole bovine heart was collected directly from slaughter and transported on ice to the cold room; from tissue; host or cells: bovine heart mitochondria, DDM-solubilised, column-purified

[2] = test system: P. berghei sporozoites, blood and liver stages; assay: P. berghei sporozoite causal prophylaxis model in mice; assay type: in vivo, Plasmodium berghei
Protocol: P. berghei sporozoites. The methods that follow are taken directly from^24,25: From laboratory-reared female Anopheles stephensi, isolation, inoculation and viability check Plasmodium berghei sporozoites (luciferase expressing) were obtained and maintained at 18° C. for 17 to 22 days after feeding on malaria-infected Swiss CD-1/ICR mice. From malaria-infected mosquitoes, salivary glands were extracted and sporozoites obtained. Briefly, mosquitoes were separated into head/thorax and abdomen. Thoraxes and heads were triturated with a mortar and pestle and suspended in medium RPMI 1640 containing 1% C57BL/6 mouse serum (Rockland Co, Gilbertsville, Pa., USA). 50-80 heads with glands total were placed into a 0.5 ml Osaki tube on top of glass wool with enough dissection media to cover the heads. Until all mosquitoes had been dissected, the Osaki tube was kept on ice. Sporozoites that were isolated from the same batch of mosquitoes were inoculated into C57BL/6, 2D knock-out and 2D knock-out/2D6 knock-in C57BL/6 mice on the same day to control for biological variability in sporozoite preparations. On day 0, each mouse was inoculated intravenously in the tail vein with approximately 10,000 sporozoites suspended in 0.1 ml volume. They were stained with a vital dye containing fluorescein diacetate (50 mg/ml in acetone) and ethidium bromide (20 μg/ml in phosphate buffered saline; Sigma Chemical Co, St. Louis, Mo., USA) and counted in a haemocytometer to ensure that inoculated sporozoites were viable following the isolation procedure. Viability of the sporozoites ranged from 90 to 100%.
At the time of preparation of the suspension solution, compounds tested in these experiments were dosed based on the body weight. The suspension solution of oral agents, using homogenizer (PRO Scientific Inc, Monroe, Conn., USA) with 10 mm open-slotted generator to homogenize drug powder mixture at 20,000-22,000 rpm for 5 min in ice bath, were prepared in 0.5% (w/v) hydroxyethyl cellulose and 0.2% (0.5% HECT, v/v) Tween-80 in distilled water. […]
All of the in vivo imaging system (IVIS) methods utilized have been described previously. […] Additionally, using a flow cytometry system (FC500 MPL, Beckman Coulter, Miami, Fla., USA), blood-stage infections were measured. […] D-Luciferin potassium salt, (Xenogen, California and Goldbio, St Louis, Mo., USA), the luciferase substrate, was inoculated intraperitoneally into mice at a concentration of 200 mg/kg 15 min before luminescence analysis. […] Using Living Image® 3.0 software, photons emitted from specific regions were quantified.
Parasitemia was measured after days of IVIS imaging. During a total of 30 days, mice were observed and parasitemia level determined using FACs analysis. […]

[3] = P. berghei, 0.625 mg/kg x3 or 2.5 mg/kg single oral dose

Row | SMILES | combination effect with BRD6323 (Dd2 parasites) | combination effect with atovaquone (Dd2 parasites) | combination effect with cycloguanil (Dd2 parasites) | growth inhibition of M221Q / M221F yeast [1] | inhibition of bovine Cytbc1 (bovine cytochrome bc) | binding affinity to bovine cytochrome bc (bovine cytochrome bc; in comparison with previous compounds) | P. berghei cure, 3 oral doses ([2]; 3 oral doses (days -1, 0, +1), 0.625 mg/kg) | parasitemia [2, 3] | survival at 30 days [2, 3] [%] | P. berghei cure, single oral dose ([2]; single dose 2.5 mg/kg, oral, 2.5 mg/kg)
1 | Cc1[nH]c2c(c(=O)c1-c1ccc(Oc3ccccc3)cc1)CCCC2 [MJM170] | Antagonism | modest synergy; also recorded: modestly synergistic; also recorded: Slight synergy | additive effect | resistant | – | – | – | – | – | –
2 | Cc1[nH]c2c(c(=O)c1-c1ccc(Oc3ccc(OC(F)(F)F)cc3)cc1)CCCC2 [JAG21, 2-methyl-3-(4-(4-(trifluoromethoxy)phenoxy)phenyl)-5,6,7,8-tetrahydroquinolin-4(1H)-one] | – | – | – | – | but not fully | lower binding affinity | protect and cure | no parasitemia | 100 | cures and cure
